Experimental findings from the Deep4Chem optical property database are described below.

Values joined by “and” are separate entries in the source; they are usually repeats but may differ in a detail not shown here. Identical values can stand only once.

The data set can be described thus: solvent given as SMILES.

Consider `CC1=CC(C)=[N+]2C1=C(c1ccccc1)c1c(C)cc(C)n1[B-]2(F)F`, for which the fluorescence lifetime is, setting by setting: (in C1CCOC1) 3.73 ns; (in CC#N) 3.81 ns; (in CC(=O)C(C)(C)C) 3.39 ns; (in CC(C)=O) 3.65 ns; (in CCCCCC) 3.37 ns; (in CCOC(C)=O) 3.98 ns. Besides, the fluorescence lifetime is, setting by setting: (in CO) 3.9 ns; (in Cc1ccccc1) 3.4 ns; (in ClCCl) 3.97 ns.
Where the note is “in CC#N”, `Cc1ccc2nc3[nH]c(=O)[nH]c(=O)c3nc2c1C` displayed a fluorescence lifetime of 2.41 ns.
Turning to `CN(C)c1ccc2nc(-c3ccccc3)sc2c1`, the fluorescence lifetime (in C1CCCCC1) was 2.1 ns.
`Cc1ccccc1C` registered a fluorescence lifetime (in C1CCCCC1) of 51 ns.
Regarding `N#Cc1c(-n2c3ccccc3c3cc(Br)ccc32)c(C#N)c(-n2c3ccccc3c3cc(Br)ccc32)c(-n2c3ccccc3c3cc(Br)ccc32)c1-n1c2ccccc2c2cc(Br)ccc21`, the fluorescence lifetime (in Cc1ccccc1) was 0.4 ns.
As for `COC(=O)C(Cc1ccc2oc(-c3ccc4c(c3)c3ccccc3n4-c3ccccc3)nc2c1)NC(=O)OC(C)(C)C` (stereo not drawn), the fluorescence lifetime by setting is: (in C1CCCCC1) 2.29 ns; (in C1CCOC1) 1.73 ns; (in C1COCCO1) 1.96 ns; (in CC1CCCO1) 1.83 ns; (in CC1COC(=O)O1) 1.83 ns; (in CC#N) 1.77 ns. Also, the fluorescence lifetime runs as follows: (in CC(C)=O) 1.75 ns; (in CC(C)CC(C)(C)C) 2.22 ns; (in CC(C)CO) 1.55 ns; (in CC(C)O) 1.57 ns; (in CC(C)OC(C)C) 1.66 ns; (in CC(O)CO) 1.74 ns. The fluorescence lifetime is, setting by setting: (in CCC(C)CC) 2.25 ns; (in CCCCC) 2.66 ns; (in CCCCCC) 2.23 ns; (in CCCCCCCCC) 2.3 ns; (in CCCCCCCCCC) 2.33 ns; (in CCCCCCCO) 1.55 ns. For the same molecule, the fluorescence lifetime by setting is: (in CCCCCCO) 1.56 ns; (in CCCCCO) 1.54 ns; (in CCCCO) 1.54 ns; (in CCO) 1.66 ns; (in CCOC(C)=O) 1.87 ns; (in CCOCC) 2.13 ns. For the same molecule, the fluorescence lifetime by setting is: (in CN(C)C=O) 1.73 ns; (in CO) 1.72 ns; (in COCCOC) 1.2 ns; (in CS(C)=O) 1.69 ns; (in Cc1ccccc1) 1.66 ns; (in Cc1ccccc1C) 1.76 ns. Moreover, the fluorescence lifetime reads like this: (in ClC(Cl)Cl) 1.32 ns; (in ClCCl) 1.5 ns; (in NC=O) 1.86 ns; (in OC1CCCCC1) 1.58 ns; (in OCCO) 1.84 ns; (in c1ccccc1) 1.67 ns.
`O=C(c1ccccc1)c1cc2ccc1CCc1ccc(cc1-c1ccc(N(c3ccccc3)c3ccccc3)cc1)CC2` displayed a fluorescence lifetime (in c1cc(-n2c3ccccc3c3ccccc32)cc(-n2c3ccccc3c3ccccc32)c1) of 17 ns.
Where the note is “in ClCCl”, `CCOC(=O)COc1ccc(/C=C/C2=C3c4ccccc4C(c4[nH]c(C)cc4C)=[N+]3[B-](F)(F)n3c(/C=C/c4ccc(OCC(=O)OCC)cc4)cc(C)c32)cc1` yielded a fluorescence lifetime of 4.82 ns.
Consider `COc1cc2c(cc1/C=C/C1=CC(=C(C#N)C#N)CC(C)(C)C1)c1ccccc1n2C`, for which the fluorescence lifetime was determined as 6.48 ns (in C1CCOC1); 10.4 ns (in CC#N); 7.78 ns (in CCO); 6.38 ns (in CCOC(C)=O); 9.14 ns (in CN(C)C=O); 8.27 ns (in CS(C)=O). For the same molecule, the fluorescence lifetime (in Cc1ccccc1) stood at 8.3 ns, the fluorescence lifetime (in ClC(Cl)Cl) came to 9.43 ns and the fluorescence lifetime (in ClCCl) amounted to 6.7 ns.
In turn, `N#Cc1c(-n2c3ccccc3c3cc(I)ccc32)c(C#N)c(-n2c3ccccc3c3cc(I)ccc32)c(-n2c3ccccc3c3cc(I)ccc32)c1-n1c2ccccc2c2cc(I)ccc21` showed a fluorescence lifetime (in Cc1ccccc1) of 0.4 ns.
With `CCC(CC)COC1=CC2=C3c4cc(OCC(CC)CC)c(-c5cccs5)n4[B-](F)(F)[n+]4nnn(c43)[B-](F)(F)[N+]2=C1c1cccs1`, the fluorescence lifetime is, setting by setting: (in C1CCOC1) 0.5 ns; (in ClCCl) 0.5 ns.
In turn, `NNC(=O)N1C(=O)c2cc(S(=O)(=O)[O-])cc3c(N)c(S(=O)(=O)[O-])cc(c23)C1=O` showed a fluorescence lifetime (in O) of 5.7 ns.
Molecule `COC(=O)c1cc(=O)n(C)c2cc(-c3cccc(N(C)C)c3)sc12` registered a fluorescence lifetime (in ClCCl) of 2.64 ns.
`N#Cc1c(-n2c3ccccc3c3cc(I)ccc32)c(-n2c3ccccc3c3cc(I)ccc32)c(C#N)c(-n2c3ccccc3c3cc(I)ccc32)c1-n1c2ccccc2c2cc(I)ccc21` yielded a fluorescence lifetime (in Cc1ccccc1) of 0.3 ns.
The molecule `COc1ccc(/C=C/c2nc3c4ccccc4c4ccccc4c3o2)cc1` had a fluorescence lifetime (in CC#N) of 0.97 ns.
Regarding `Brc1c(Br)c2ccc3c(Br)c(Br)c4ccc5ccc1c1c5c4c3c21`, the fluorescence lifetime (in C1CCCCC1) is 0.058 ns.
For the molecule `CCCCCCCC(=O)Oc1ccc2c3cccc4c(OC(=O)CCCCCCC)ccc(c5cccc1c52)c43`, the fluorescence lifetime reads like this: (in C1CCOC1) 4.35 ns; (in Cc1ccccc1) 3.72 ns; (in ClC(Cl)(Cl)Cl) 3.89 ns; (in ClC(Cl)Cl) 4.16 ns; (in ClCCl) 4.34 ns; (in c1ccncc1) 3.88 ns.
In turn, `CCOC(=O)c1ccc2c(c1)[nH]c1c3ccc(C(=O)OCC)cc3sc21` gave a fluorescence lifetime (in CCCO) of 2.6 ns.
`CCC[Si](CCC)(CCC)c1cc2ccc3cccc4ccc(c1C(=O)NC(C)(C)C)c2c34`: for the setting “in ClC(Cl)Cl”, the fluorescence lifetime came out at 6.91 ns.
Take `O=C1c2ccc3c4c(Oc5ccccc5)cc5c6c(ccc(c7c(Oc8ccccc8)cc(c2c37)C(=O)N1c1ccc(O)cc1)c64)C(=O)N(c1ccc(O)cc1)C5=O`: the fluorescence lifetime is, setting by setting: (in C1CCOC1) 7.52 ns; (in CN1CCCC1=O) 1.62 ns; (in CN(C)C=O) 0.05 ns.
The molecule `O=c1oc2ccccc2cc1-c1cccc(-c2cc3ccccc3oc2=O)c1` gave a fluorescence lifetime (in ClC(Cl)Cl) of 0.4 ns.
As to `F[B-]1(F)n2cccc2C=C2C=CC=[N+]21`, the fluorescence lifetime runs as follows: (in C1CCCCC1) 6.47 ns; (in CC(C)=O) 7.12 ns; (in CCCCCC) 6.79 ns; (in CCO) 7.02 ns; (in CCOC(C)=O) 6.9 ns; (in CO) 7.35 ns and 7.33 ns. Further, the fluorescence lifetime (in ClCCl) stood at 6.78 ns and the fluorescence lifetime (in OCC(F)(F)F) came out at 8.23 ns.
Regarding `CCN(CC)c1ccc2cc(/C=C/C(=C(C#N)C#N)c3ccc4c(c3)c3ccccc3n4CC)c(=O)oc2c1`, the fluorescence lifetime worked out at 4.49 ns (in CC(C)=O); 3.49 ns (in CCOC(C)=O); 4.81 ns (in CN(C)C=O); 4.66 ns (in CS(C)=O); 1.15 ns (in Cc1ccccc1); 3.32 ns (in ClCCl).
Turning to `c1ccc(-c2c3ccccc3c(-c3cncnc3)c3ccccc23)cc1`, the fluorescence lifetime reads like this: (in CCO) 3.5 ns; (in ClCCl) 6.9 ns.
As to `C=Cc1ccc(OC)cc1`, the fluorescence lifetime reads like this: (in C1CCCCC1) 6.6 ns; (in CC#N) 6.3 ns.
With `Cc1ccc2c(c1)C1(c3ccccc3-c3ccccc31)c1cc(C)ccc1N2c1ccc(-c2ncccn2)cc1`, the fluorescence lifetime (in O=P(c1ccccc1)(c1ccccc1)c1ccc2oc3ccc(P(=O)(c4ccccc4)c4ccccc4)cc3c2c1) is 13 ns.
Consider `NCc1ccc2ccc3cccc4ccc1c2c34`, for which the fluorescence lifetime (in CC#N) is 232 ns, the fluorescence lifetime (in CO) was found to be 119 ns and the fluorescence lifetime (in ClC(Cl)Cl) was found to be 38 ns.
Regarding `F[B-]1(F)n2c(/C=C/c3ccc(C(=C(c4ccccc4)c4ccccc4)c4ccccc4)cc3)ccc2C(c2ccc(C(=C(c3ccccc3)c3ccccc3)c3ccccc3)cc2)=C2C=CC(/C=C/c3ccc(C(=C(c4ccccc4)c4ccccc4)c4ccccc4)cc3)=[N+]21`, the fluorescence lifetime (in C1CCOC1) came to 3.89 ns.
The molecule `CCCCCCCCCCCCOc1cc2c3c(ccc4c5c(OC6CCC(C(C)(C)C)CC6)cc6c7c(ccc(c1c34)c75)C(=O)N(C1CCCCC1)C6=O)C(=O)N(C1CCCCC1)C2=O` (stereo not drawn) came in with a fluorescence lifetime (in ClC(Cl)Cl) of 5 ns.
In the case of `CC1(C)c2ccccc2N(c2ccc3c(c2)c2cc(N4c5ccccc5C(C)(C)c5ccccc54)ccc2c2nc(C#N)c(C#N)nc32)c2ccccc21`, the fluorescence lifetime (in O=P(c1ccccc1)(c1ccccc1)c1cccc(-c2cc(-n3c4ccccc4c4ccccc43)cc(-n3c4ccccc4c4ccccc43)c2)n1) is 53.7 ns.
In turn, `CCC1(CC)c2cc(-c3ccc4c(c3)C(CC)(CC)c3cc(C(C)(C)C)ccc3-4)ccc2-c2ccc(-c3ccc4c(c3)C(CC)(CC)c3cc(C(C)(C)C)ccc3-4)cc21` returned a fluorescence lifetime (in CCCCC) of 0.72 ns; a fluorescence lifetime (in CCCCCC) of 0.67 ns; a fluorescence lifetime (in CCCCCCC) of 0.67 ns; a fluorescence lifetime (in CCCCCCCC) of 0.7 ns; a fluorescence lifetime (in CCCCCCCCC) of 0.7 ns; a fluorescence lifetime (in CCCCCCCCCC) of 0.71 ns. In addition, the fluorescence lifetime by setting is: (in CCCCCCCCCCCC) 0.74 ns; (in CCCCCCCCCCCCC) 0.76 ns; (in CCCCCCCCCCCCCCC) 0.75 ns; (in CCCCCCCCCCCCCCCC) 0.75 ns; (in CCCCCCCCCCO) 0.8 ns; (in CCCCCCCCCO) 0.74 ns. The fluorescence lifetime amounted to 0.75 ns (in CCCCCCCCO); 0.75 ns (in CCCCCCCO); 0.76 ns (in CCCCCCO); 0.76 ns (in CCCCCO); 0.78 ns (in CCCCO); 0.8 ns (in CCCO). Moreover, the fluorescence lifetime is, setting by setting: (in CCO) 0.8 ns; (in CO) 0.78 ns.
In the case of `CC1=CC(C)=[N+]2C1=C(c1ccccc1)c1c(C)c(-c3cccs3)c(C)n1[B-]2(F)F`, under “in Cc1ccccc1”, the fluorescence lifetime is 3.2 ns.
In the case of `CCN(CC)c1cc2oc(=O)cc(C)c2cc1C`, the fluorescence lifetime (in CCO) worked out at 2.56 ns.
Under “in ClCCl”, `COc1nnc(Cl)nn1` had a fluorescence lifetime of 160 ns.
